Measurements: article PMC10209615, “Pharmacological inhibition of LSD1 suppresses growth of hepatocellular carcinoma by inducing GADD45B” (MedComm, 2023)

How the values were obtained:
Test in all cases: Kinase activity detection (Eurofins)
Format in all cases: biochemical
CDK5/p35 = molecular target: T1, CDK5/p35 (Homo sapiens, UniProt Q00535); settings: ZY0511 1 µM, read-out: Inhibition rate
T1 construct: purchased Eurofins Pharma Discovery Services (KinaseProfiler)
Procedure: (§1) The activity of ZY0511 against 104 cancer‐related kinases was carried out by Eurofins Pharma Discovery Services (Celle Lévescault, France).

CHK2 = molecular target: T2, CHK2 (Homo sapiens, UniProt O96017); settings: ZY0511 1 µM, read-out: Activation rate
T2 construct: purchased Eurofins Pharma Discovery Services (KinaseProfiler)
Procedure: as §1

[1] = molecular target: T3, PI3 Kinase (p110α (H1047R)/p85α) (Homo sapiens, UniProt P42336, H1047R); settings: ZY0511 1 µM, read-out: Inhibition rate
T3 construct: purchased Eurofins Pharma Discovery Services (KinaseProfiler)
Procedure: as §1

Yes = molecular target: T4, Yes (Homo sapiens, UniProt P07947); settings: ZY0511 1 µM, read-out: Inhibition rate
T4 construct: purchased Eurofins Pharma Discovery Services
Procedure: as §1

B-Raf = molecular target: T5, B-Raf (Homo sapiens, UniProt P15056); settings: ZY0511 1 µM, read-out: Inhibition rate
T5 construct: purchased Eurofins Pharma Discovery Services (KinaseProfiler)
Procedure: as §1

BRK = molecular target: T6, BRK (Homo sapiens, UniProt Q13882); settings: ZY0511 1 µM, read-out: Inhibition rate
T6 construct: purchased Eurofins Pharma Discovery Services (KinaseProfiler)
Procedure: as §1

TrkA = molecular target: T7, TrkA (Homo sapiens, UniProt P04629); settings: ZY0511 1 µM, read-out: Activation rate
T7 construct: purchased Eurofins Pharma Discovery Services (KinaseProfiler)
Procedure: as §1

IGF-1R = molecular target: T8, IGF-1R (Homo sapiens, UniProt P08069)
T8 construct: purchased Eurofins Pharma Discovery Services
T8 sequence (P08069 31-1367, species assumed): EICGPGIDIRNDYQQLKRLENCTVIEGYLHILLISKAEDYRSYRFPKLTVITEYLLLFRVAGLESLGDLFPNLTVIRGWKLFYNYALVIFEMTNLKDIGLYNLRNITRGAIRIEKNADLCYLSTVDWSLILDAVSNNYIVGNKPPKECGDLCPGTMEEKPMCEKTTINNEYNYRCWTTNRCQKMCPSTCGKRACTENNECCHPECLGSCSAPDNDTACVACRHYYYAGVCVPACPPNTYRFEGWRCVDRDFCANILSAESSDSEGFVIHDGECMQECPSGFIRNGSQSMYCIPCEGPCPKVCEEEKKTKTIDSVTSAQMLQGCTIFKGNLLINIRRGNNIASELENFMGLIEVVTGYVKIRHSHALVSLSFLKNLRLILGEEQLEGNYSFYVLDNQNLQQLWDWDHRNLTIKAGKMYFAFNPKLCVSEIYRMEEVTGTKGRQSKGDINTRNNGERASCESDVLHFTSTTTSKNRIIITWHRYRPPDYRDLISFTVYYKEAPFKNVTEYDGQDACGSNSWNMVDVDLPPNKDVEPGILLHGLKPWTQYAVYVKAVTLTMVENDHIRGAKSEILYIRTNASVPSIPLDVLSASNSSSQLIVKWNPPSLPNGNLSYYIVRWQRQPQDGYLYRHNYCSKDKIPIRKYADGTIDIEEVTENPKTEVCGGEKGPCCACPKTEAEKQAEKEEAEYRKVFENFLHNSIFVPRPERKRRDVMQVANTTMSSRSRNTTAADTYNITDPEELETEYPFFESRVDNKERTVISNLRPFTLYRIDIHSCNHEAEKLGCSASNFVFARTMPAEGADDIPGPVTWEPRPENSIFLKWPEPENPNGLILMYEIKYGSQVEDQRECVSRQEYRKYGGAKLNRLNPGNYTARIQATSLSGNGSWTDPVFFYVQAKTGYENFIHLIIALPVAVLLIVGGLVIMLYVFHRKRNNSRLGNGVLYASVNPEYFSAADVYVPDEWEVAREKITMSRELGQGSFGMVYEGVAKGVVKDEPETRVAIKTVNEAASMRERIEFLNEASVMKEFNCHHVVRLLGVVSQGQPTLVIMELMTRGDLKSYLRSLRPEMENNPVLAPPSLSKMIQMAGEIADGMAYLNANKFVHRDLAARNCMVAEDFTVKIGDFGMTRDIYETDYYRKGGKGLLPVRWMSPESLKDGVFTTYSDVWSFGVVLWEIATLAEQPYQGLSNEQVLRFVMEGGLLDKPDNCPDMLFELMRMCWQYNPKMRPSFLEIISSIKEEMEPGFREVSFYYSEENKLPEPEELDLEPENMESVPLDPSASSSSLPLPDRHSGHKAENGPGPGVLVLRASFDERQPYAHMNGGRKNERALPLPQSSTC
Procedure: as §1

FGFR4 = molecular target: T9, FGFR4 (Homo sapiens, UniProt P22455); settings: ZY0511 1 µM, read-out: Inhibition rate
T9 construct: purchased Eurofins Pharma Discovery Services
Procedure: as §1

cKit (D816H) = molecular target: T10, cKit (D816H) (Homo sapiens, UniProt P10721, D816H); settings: ZY0511 1 µM, read-out: Activation rate
T10 construct: purchased Eurofins Pharma Discovery Services (KinaseProfiler)
Procedure: as §1

FGFR2 = molecular target: T11, FGFR2 (Homo sapiens, UniProt P21802); settings: ZY0511 1 µM, read-out: Inhibition rate
T11 construct: purchased Eurofins Pharma Discovery Services
Procedure: as §1

FGFR1 = molecular target: T12, FGFR1 (Homo sapiens, UniProt P11362); settings: ZY0511 1 µM, read-out: Activation rate
T12 construct: purchased Eurofins Pharma Discovery Services (KinaseProfiler)
Procedure: as §1

DDR2 = molecular target: T13, DDR2 (Homo sapiens, UniProt Q16832); settings: ZY0511 1 µM, read-out: Inhibition rate
T13 construct: purchased Eurofins Pharma Discovery Services (KinaseProfiler)
Procedure: as §1

EGFR (L858R) = molecular target: T14, EGFR (L858R) (Homo sapiens, UniProt P00533, L858R); settings: ZY0511 1 µM, read-out: Inhibition rate
T14 construct: purchased Eurofins Pharma Discovery Services (KinaseProfiler)
Procedure: as §1

PDK1 = molecular target: T15, PDK1 (Homo sapiens, UniProt O15530); settings: ZY0511 1 µM, read-out: Inhibition rate
T15 construct: purchased Eurofins Pharma Discovery Services (KinaseProfiler)
Procedure: as §1

PKCθ = molecular target: T16, PKCθ (Homo sapiens, UniProt Q04759); settings: ZY0511 1 µM, read-out: Inhibition rate
T16 construct: purchased Eurofins Pharma Discovery Services
Procedure: as §1

PDGFRα (D842V) = molecular target: T17, PDGFRα (D842V) (Homo sapiens, UniProt P16234, D842V); settings: ZY0511 1 µM, read-out: Activation rate
T17 construct: purchased Eurofins Pharma Discovery Services (KinaseProfiler)
Procedure: as §1

ErbB2 = molecular target: T18, ErbB2 (Homo sapiens, UniProt P04626); settings: ZY0511 1 µM, read-out: Activation rate
T18 construct: purchased Eurofins Pharma Discovery Services (KinaseProfiler)
Procedure: as §1

TAK1 = molecular target: T19, TAK1 (Homo sapiens, UniProt O43318); settings: ZY0511 1 µM, read-out: Inhibition rate
T19 construct: purchased Eurofins Pharma Discovery Services
Procedure: as §1

TrkC = molecular target: T20, TrkC (Homo sapiens, UniProt Q16288); settings: ZY0511 1 µM, read-out: Inhibition rate
T20 construct: purchased Eurofins Pharma Discovery Services (KinaseProfiler)
Procedure: as §1

EGFR (L861Q) = molecular target: T21, EGFR (L861Q) (Homo sapiens, UniProt P00533, L861Q); settings: ZY0511 1 µM, read-out: Inhibition rate
T21 construct: purchased Eurofins Pharma Discovery Services (KinaseProfiler)
Procedure: as §1

ATR/ATRIP = molecular target: T22, ATR/ATRIP (Homo sapiens, UniProt Q13535)
T22 construct: purchased Eurofins Pharma Discovery Services
T22 sequence (Q13535 whole entry): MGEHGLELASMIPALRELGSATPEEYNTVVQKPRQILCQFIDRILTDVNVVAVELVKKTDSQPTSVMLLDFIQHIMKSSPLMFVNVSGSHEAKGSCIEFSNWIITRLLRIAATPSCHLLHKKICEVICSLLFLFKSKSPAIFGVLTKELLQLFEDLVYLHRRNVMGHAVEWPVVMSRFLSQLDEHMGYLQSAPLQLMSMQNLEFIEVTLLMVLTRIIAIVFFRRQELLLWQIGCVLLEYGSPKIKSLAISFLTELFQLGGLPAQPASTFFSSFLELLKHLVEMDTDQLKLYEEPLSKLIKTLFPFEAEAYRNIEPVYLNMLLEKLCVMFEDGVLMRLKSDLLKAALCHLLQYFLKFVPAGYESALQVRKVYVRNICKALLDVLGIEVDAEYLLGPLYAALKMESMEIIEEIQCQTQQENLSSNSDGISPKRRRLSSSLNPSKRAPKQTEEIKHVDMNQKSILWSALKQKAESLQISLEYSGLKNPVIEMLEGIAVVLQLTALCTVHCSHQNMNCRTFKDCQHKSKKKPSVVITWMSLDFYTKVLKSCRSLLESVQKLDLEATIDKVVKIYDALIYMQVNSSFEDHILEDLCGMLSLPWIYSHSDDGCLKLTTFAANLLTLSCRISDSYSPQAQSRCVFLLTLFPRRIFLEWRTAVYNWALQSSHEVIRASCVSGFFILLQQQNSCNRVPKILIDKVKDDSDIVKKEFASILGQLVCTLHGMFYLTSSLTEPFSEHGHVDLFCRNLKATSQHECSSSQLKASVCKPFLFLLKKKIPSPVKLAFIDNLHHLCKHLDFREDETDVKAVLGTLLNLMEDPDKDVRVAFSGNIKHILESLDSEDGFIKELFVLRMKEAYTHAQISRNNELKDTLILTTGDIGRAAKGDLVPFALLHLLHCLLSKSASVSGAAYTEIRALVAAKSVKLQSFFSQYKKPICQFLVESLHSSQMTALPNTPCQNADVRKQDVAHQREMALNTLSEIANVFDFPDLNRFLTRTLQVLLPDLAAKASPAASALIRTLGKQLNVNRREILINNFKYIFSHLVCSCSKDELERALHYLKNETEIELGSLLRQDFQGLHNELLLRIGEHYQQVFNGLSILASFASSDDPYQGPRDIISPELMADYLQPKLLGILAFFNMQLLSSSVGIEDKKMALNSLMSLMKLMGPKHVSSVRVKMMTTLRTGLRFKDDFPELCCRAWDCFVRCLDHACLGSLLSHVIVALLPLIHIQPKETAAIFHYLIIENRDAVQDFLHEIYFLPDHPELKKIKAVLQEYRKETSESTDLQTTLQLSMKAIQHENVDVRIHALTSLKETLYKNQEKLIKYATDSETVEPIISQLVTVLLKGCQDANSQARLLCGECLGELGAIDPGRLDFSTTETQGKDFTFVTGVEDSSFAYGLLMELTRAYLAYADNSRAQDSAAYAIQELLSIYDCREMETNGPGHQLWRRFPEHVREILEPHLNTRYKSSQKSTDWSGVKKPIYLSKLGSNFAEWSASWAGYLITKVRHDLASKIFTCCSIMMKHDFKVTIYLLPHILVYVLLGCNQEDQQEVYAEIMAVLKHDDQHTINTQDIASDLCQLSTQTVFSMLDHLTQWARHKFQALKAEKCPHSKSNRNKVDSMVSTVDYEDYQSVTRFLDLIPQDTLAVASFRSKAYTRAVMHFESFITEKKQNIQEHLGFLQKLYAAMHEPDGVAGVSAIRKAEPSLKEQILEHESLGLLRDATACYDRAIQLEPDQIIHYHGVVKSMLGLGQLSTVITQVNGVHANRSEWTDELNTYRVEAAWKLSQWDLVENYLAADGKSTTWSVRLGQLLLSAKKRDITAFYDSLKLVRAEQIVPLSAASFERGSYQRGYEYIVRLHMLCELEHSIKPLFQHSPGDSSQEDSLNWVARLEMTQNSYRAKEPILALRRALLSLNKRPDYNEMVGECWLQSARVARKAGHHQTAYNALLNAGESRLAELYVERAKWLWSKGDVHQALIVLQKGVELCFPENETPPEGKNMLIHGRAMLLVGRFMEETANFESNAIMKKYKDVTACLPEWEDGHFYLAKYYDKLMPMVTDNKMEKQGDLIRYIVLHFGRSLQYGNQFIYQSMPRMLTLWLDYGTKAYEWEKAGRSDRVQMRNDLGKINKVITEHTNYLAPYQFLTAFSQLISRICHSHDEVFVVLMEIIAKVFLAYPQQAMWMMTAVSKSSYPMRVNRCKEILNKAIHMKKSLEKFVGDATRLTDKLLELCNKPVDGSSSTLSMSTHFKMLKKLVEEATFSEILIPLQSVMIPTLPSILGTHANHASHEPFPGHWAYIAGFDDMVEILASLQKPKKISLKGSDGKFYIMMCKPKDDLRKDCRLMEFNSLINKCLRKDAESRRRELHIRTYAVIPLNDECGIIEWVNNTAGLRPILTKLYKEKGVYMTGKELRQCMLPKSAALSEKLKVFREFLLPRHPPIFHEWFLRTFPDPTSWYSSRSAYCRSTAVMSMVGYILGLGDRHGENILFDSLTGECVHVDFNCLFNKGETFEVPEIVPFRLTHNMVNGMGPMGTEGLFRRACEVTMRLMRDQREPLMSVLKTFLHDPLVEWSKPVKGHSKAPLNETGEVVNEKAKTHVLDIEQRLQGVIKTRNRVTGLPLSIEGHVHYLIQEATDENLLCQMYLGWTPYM
T22 sequence (Q8WXE1 whole entry partner): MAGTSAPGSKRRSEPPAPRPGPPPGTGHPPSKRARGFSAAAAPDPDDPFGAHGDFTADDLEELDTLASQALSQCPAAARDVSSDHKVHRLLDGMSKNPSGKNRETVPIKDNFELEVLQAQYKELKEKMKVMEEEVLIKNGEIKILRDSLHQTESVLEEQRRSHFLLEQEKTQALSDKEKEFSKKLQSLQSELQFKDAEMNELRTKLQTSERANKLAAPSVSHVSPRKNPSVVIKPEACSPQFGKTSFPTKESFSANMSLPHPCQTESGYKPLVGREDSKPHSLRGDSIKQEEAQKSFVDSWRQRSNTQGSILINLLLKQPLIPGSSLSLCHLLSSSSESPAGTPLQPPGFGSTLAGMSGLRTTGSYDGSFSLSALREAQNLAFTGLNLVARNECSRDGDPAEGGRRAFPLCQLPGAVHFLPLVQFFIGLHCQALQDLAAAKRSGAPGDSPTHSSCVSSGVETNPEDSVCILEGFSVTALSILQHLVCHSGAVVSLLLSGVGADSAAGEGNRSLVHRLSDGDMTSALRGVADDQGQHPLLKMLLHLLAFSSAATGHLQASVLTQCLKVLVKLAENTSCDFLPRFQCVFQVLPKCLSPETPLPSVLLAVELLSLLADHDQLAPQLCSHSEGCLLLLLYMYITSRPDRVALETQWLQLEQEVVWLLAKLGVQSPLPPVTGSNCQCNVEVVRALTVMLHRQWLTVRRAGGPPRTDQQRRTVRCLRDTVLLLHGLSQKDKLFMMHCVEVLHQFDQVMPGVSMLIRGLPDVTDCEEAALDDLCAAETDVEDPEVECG
Procedure: as §1

B-Raf (V599E) = molecular target: T23, B-Raf (V599E) (Homo sapiens, UniProt P15056, V600E); settings: ZY0511 1 µM, read-out: Inhibition rate
T23 construct: purchased Eurofins Pharma Discovery Services (KinaseProfiler)
T23 sequence (P15056 417-766 V600E limits assumed): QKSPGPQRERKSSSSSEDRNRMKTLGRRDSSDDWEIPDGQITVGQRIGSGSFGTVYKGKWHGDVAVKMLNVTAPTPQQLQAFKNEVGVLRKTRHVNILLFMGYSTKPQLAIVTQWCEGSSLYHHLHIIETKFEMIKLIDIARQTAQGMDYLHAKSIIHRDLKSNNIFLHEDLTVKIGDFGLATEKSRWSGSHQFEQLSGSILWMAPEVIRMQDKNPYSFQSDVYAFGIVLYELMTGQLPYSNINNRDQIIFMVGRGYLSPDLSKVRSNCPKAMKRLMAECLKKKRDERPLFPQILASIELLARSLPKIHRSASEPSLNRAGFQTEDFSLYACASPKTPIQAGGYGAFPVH
Procedure: as §1

MST3 = molecular target: T24, MST3 (Homo sapiens, UniProt Q9Y6E0); settings: ZY0511 1 µM, read-out: Inhibition rate
T24 construct: purchased Eurofins Pharma Discovery Services (KinaseProfiler)
Procedure: as §1

Snk = molecular target: T25, Snk (Homo sapiens, UniProt Q9NYY3); settings: ZY0511 1 µM, read-out: Inhibition rate
T25 construct: purchased Eurofins Pharma Discovery Services (KinaseProfiler)
Procedure: as §1

Wee1 = molecular target: T26, Wee1 (Homo sapiens, UniProt P30291); settings: ZY0511 1 µM, read-out: Activation rate
T26 construct: purchased Eurofins Pharma Discovery Services (KinaseProfiler)
Procedure: as §1

EGFR (T790M) = molecular target: T27, EGFR (T790M) (Homo sapiens, UniProt P00533, T790M); settings: ZY0511 1 µM
T27 construct: purchased Eurofins Pharma Discovery Services (KinaseProfiler)
Procedure: as §1

PKD2 = molecular target: T28, PKD2 (Homo sapiens, UniProt Q9BZL6); settings: ZY0511 1 µM, read-out: Inhibition rate
T28 construct: purchased Eurofins Pharma Discovery Services
Procedure: as §1

ROCK-I = molecular target: T29, ROCK-I (Homo sapiens, UniProt Q13464); settings: ZY0511 1 µM, read-out: Inhibition rate
T29 construct: purchased Eurofins Pharma Discovery Services
Procedure: as §1

Fes = molecular target: T30, Fes (Homo sapiens, UniProt P07332); settings: ZY0511 1 µM, read-out: Inhibition rate
T30 construct: purchased Eurofins Pharma Discovery Services (KinaseProfiler)
Procedure: as §1

HIPK3 = molecular target: T31, HIPK3 (Homo sapiens, UniProt Q9H422); settings: ZY0511 1 µM, read-out: Inhibition rate
T31 construct: purchased Eurofins Pharma Discovery Services (KinaseProfiler)
Procedure: as §1

cSRC = molecular target: T32, cSRC (Homo sapiens, UniProt P12931); settings: ZY0511 1 µM, read-out: Activation rate
T32 construct: purchased Eurofins Pharma Discovery Services (KinaseProfiler)
Procedure: as §1

cKit = molecular target: T33, cKit (Homo sapiens, UniProt P10721); settings: ZY0511 1 µM, read-out: Activation rate
T33 construct: purchased Eurofins Pharma Discovery Services (KinaseProfiler)
Procedure: as §1

MEK1 = molecular target: T34, MEK1 (Homo sapiens, UniProt Q02750); settings: ZY0511 1 µM, read-out: Inhibition rate
T34 construct: purchased Eurofins Pharma Discovery Services (KinaseProfiler)
Procedure: as §1

PKCε = molecular target: T35, PKCε (Homo sapiens, UniProt Q02156); settings: ZY0511 1 µM, read-out: Inhibition rate
T35 construct: purchased Eurofins Pharma Discovery Services (KinaseProfiler)
Procedure: as §1

Blk = molecular target: T36, Blk (Homo sapiens, UniProt P51451); settings: ZY0511 1 µM, read-out: Inhibition rate
T36 construct: purchased Eurofins Pharma Discovery Services (KinaseProfiler)
Procedure: as §1

LKB1 = molecular target: T37, LKB1 (Homo sapiens, UniProt Q15831); settings: ZY0511 1 µM, read-out: Inhibition rate
T37 construct: purchased Eurofins Pharma Discovery Services (KinaseProfiler)
Procedure: as §1

EphB4 = molecular target: T38, EphB4 (Homo sapiens, UniProt P54760); settings: ZY0511 1 µM, read-out: Activation rate
T38 construct: purchased Eurofins Pharma Discovery Services (KinaseProfiler)
Procedure: as §1

Bmx = molecular target: T39, Bmx (Homo sapiens, UniProt P51813); settings: ZY0511 1 µM, read-out: Inhibition rate
T39 construct: purchased Eurofins Pharma Discovery Services (KinaseProfiler)
Procedure: as §1

PDGFRα = molecular target: T40, PDGFRα (Homo sapiens, UniProt P16234); settings: ZY0511 1 µM, read-out: Activation rate
T40 construct: purchased Eurofins Pharma Discovery Services (KinaseProfiler)
Procedure: as §1

Question: With `O=C(N/N=C1\CCc2c(Cl)ccc(O)c21)c1cccc(S(=O)(=O)N2CCOCC2)c1` [ZY0511, (E)‐N'‐(2, 3‐dihydro‐1H‐inden‐1‐ylidene) benzohydrazides] as the compound, how does the inhibition at 1 µM (CDK5/p35) read?
Answer: 9%

Question: And the activation at 1 µM (CHK2)?
Answer: 2%

Question: What about the inhibition at 1 µM [1] of the same compound?
Answer: 6%

Question: And the inhibition at 1 µM (Yes)?
Answer: 0%

Question: And the inhibition at 1 µM (B-Raf)?
Answer: 29%

Question: What about the inhibition at 1 µM (BRK) of the same compound?
Answer: 4%

Question: What about the activation at 1 µM (TrkA) of the same compound?
Answer: 3%

Question: What about the activation at 1 µM (IGF-1R; IGF-1R, ZY0511 1 µM, read-out: Activation rate) of the same compound?
Answer: 185%

Question: What about the IC50 (IGF-1R; IGF‐1R) of the same compound?
Answer: > 10 µM

Question: What about the inhibition at 1 µM (FGFR4) of the same compound?
Answer: 14%

Question: And the activation at 1 µM (cKit (D816H))?
Answer: 2%

Question: And the inhibition at 1 µM (FGFR2)?
Answer: 11%

Question: What about the activation at 1 µM (FGFR1) of the same compound?
Answer: 1%

Question: And the inhibition at 1 µM (DDR2)?
Answer: 5%

Question: What about the inhibition at 1 µM (EGFR (L858R)) of the same compound?
Answer: 8%

Question: And the inhibition at 1 µM (PDK1)?
Answer: 8%

Question: And the inhibition at 1 µM (PKCθ)?
Answer: 3%

Question: And the activation at 1 µM (PDGFRα (D842V))?
Answer: 2%

Question: What about the activation at 1 µM (ErbB2) of the same compound?
Answer: 25%

Question: What about the inhibition at 1 µM (TAK1) of the same compound?
Answer: 1%

Question: What about the inhibition at 1 µM (TrkC) of the same compound?
Answer: 7%

Question: What about the inhibition at 1 µM (EGFR (L861Q)) of the same compound?
Answer: 6%

Question: What about the IC50 (ATR/ATRIP) of the same compound?
Answer: 9.59 µM

Question: What about the inhibition at 1 µM (ATR/ATRIP; ZY0511 1 µM, read-out: Inhibition rate) of the same compound?
Answer: 62%

Question: What about the inhibition at 1 µM (B-Raf (V599E)) of the same compound?
Answer: 51%

Question: What about the inhibition at 1 µM (MST3) of the same compound?
Answer: 35%

Question: What about the inhibition at 1 µM (Snk) of the same compound?
Answer: 4%

Question: What about the activation at 1 µM (Wee1) of the same compound?
Answer: 11%

Question: And the Activation rate (EGFR (T790M))?
Answer: 5%

Question: What about the inhibition at 1 µM (PKD2) of the same compound?
Answer: 2%

Question: What about the inhibition at 1 µM (ROCK-I) of the same compound?
Answer: 11%

Question: What about the inhibition at 1 µM (Fes) of the same compound?
Answer: 24%

Question: What about the inhibition at 1 µM (HIPK3) of the same compound?
Answer: 6%

Question: And the activation at 1 µM (cSRC)?
Answer: 4%

Question: And the activation at 1 µM (cKit)?
Answer: 14%

Question: And the inhibition at 1 µM (MEK1)?
Answer: 6%

Question: What about the inhibition at 1 µM (PKCε) of the same compound?
Answer: 8%

Question: What about the inhibition at 1 µM (Blk) of the same compound?
Answer: 29%

Question: What about the inhibition at 1 µM (LKB1) of the same compound?
Answer: 15%

Question: What about the activation at 1 µM (EphB4) of the same compound?
Answer: 5%

Question: And the inhibition at 1 µM (Bmx)?
Answer: 17%

Question: What about the activation at 1 µM (PDGFRα) of the same compound?
Answer: 33%
